Tests used:
Assay in all cases: AUC of viability dose-response curve (% viability x log10 dose units); higher = less sensitive
Conditions in all cases: 48 h
[1] = test system: NOMO1
In short: (§1)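 In 1536-well plates, leukemia cells adapted to each medium (500 or 1000 cells/well) were exposed for 48 h at 37°C to library compounds in DMSO across 11 threefold doses, 47 μM down to 0.79 nM. Viability was read by CellTiter-Glo One luminescence and normalised per plate to DMSO and cell-free wells. A four-parameter log-logistic fit over log10 doses was integrated by trapezoidal rule. This yielded the area under the curve, with over-full-viability curves scaled and quality-control failures dropped.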

[2] = test system: SEM cells
In short: as §1

[3] = test system: P12-Ichikawa
In short: as §1

[4] = RPMI 5 mM glucose + 10% dialyzed FBS

SMILES: CN(C)[C@H]\1[C@@H]2[C@@H](O)[C@@H]\3C(=C)C4=C(C(=CC=C4)O)C(=O)C3=C(\O)[C@@]2(O)C(=O)\C(=C1O)C(N)=O
- AUC of viability dose-response curve ([1]; HPLM + 10% dialyzed FBS): 449
- AUC of viability dose-response curve ([1]; RPMI 5 mM glucose + 10% FBS): 462
- AUC of viability dose-response curve [1, 4]: 474
- AUC of viability dose-response curve ([2]; HPLM + 10% dialyzed FBS): 452
- AUC of viability dose-response curve ([2]; RPMI 5 mM glucose + 10% FBS): 463
- AUC of viability dose-response curve [2, 4]: 466
- AUC of viability dose-response curve ([3]; HPLM + 10% dialyzed FBS): 465
- AUC of viability dose-response curve ([3]; RPMI 5 mM glucose + 10% FBS): 468
- AUC of viability dose-response curve [3, 4]: 472

SMILES: Cc1nc2c([nH]1)-c1ccccc1N(C(=O)c1ccc(NC(=O)c3ccccc3-c3ccccc3)cc1)CC2
- AUC of viability dose-response curve ([1]; HPLM + 10% dialyzed FBS): 470
- AUC of viability dose-response curve ([1]; RPMI 5 mM glucose + 10% FBS): 444
- AUC of viability dose-response curve [1, 4]: 468
- AUC of viability dose-response curve ([2]; HPLM + 10% dialyzed FBS): 451
- AUC of viability dose-response curve ([2]; RPMI 5 mM glucose + 10% FBS): 457
- AUC of viability dose-response curve [2, 4]: 449
- AUC of viability dose-response curve ([3]; HPLM + 10% dialyzed FBS): 466
- AUC of viability dose-response curve ([3]; RPMI 5 mM glucose + 10% FBS): 467
- AUC of viability dose-response curve [3, 4]: 471

SMILES: CCOC(=O)c1ccc(C#Cc2ccc3c(c2)C(C)(C)CCS3)nc1
- AUC of viability dose-response curve ([1]; HPLM + 10% dialyzed FBS): 436
- AUC of viability dose-response curve ([1]; RPMI 5 mM glucose + 10% FBS): 467
- AUC of viability dose-response curve [1, 4]: 450
- AUC of viability dose-response curve ([2]; HPLM + 10% dialyzed FBS): 472
- AUC of viability dose-response curve ([2]; RPMI 5 mM glucose + 10% FBS): 477
- AUC of viability dose-response curve [2, 4]: 446
- AUC of viability dose-response curve ([3]; HPLM + 10% dialyzed FBS): 470
- AUC of viability dose-response curve ([3]; RPMI 5 mM glucose + 10% FBS): 469
- AUC of viability dose-response curve [3, 4]: 475

SMILES: c1cc(-c2sc(-c3ccncc3)c(-c3ccncc3)c2-c2ccncc2)ccn1
- AUC of viability dose-response curve ([1]; HPLM + 10% dialyzed FBS): 472
- AUC of viability dose-response curve ([1]; RPMI 5 mM glucose + 10% FBS): 439
- AUC of viability dose-response curve [1, 4]: 464
- AUC of viability dose-response curve ([2]; HPLM + 10% dialyzed FBS): 377
- AUC of viability dose-response curve ([2]; RPMI 5 mM glucose + 10% FBS): 350
- AUC of viability dose-response curve [2, 4]: 365
- AUC of viability dose-response curve ([3]; HPLM + 10% dialyzed FBS): 472
- AUC of viability dose-response curve ([3]; RPMI 5 mM glucose + 10% FBS): 466
- AUC of viability dose-response curve [3, 4]: 471

SMILES: Cn1cc(-c2ccc3ncc(Cc4ccc5ncccc5c4)n3n2)cn1
- AUC of viability dose-response curve ([1]; HPLM + 10% dialyzed FBS): 468
- AUC of viability dose-response curve ([1]; RPMI 5 mM glucose + 10% FBS): 477
- AUC of viability dose-response curve [1, 4]: 472
- AUC of viability dose-response curve ([2]; HPLM + 10% dialyzed FBS): 450
- AUC of viability dose-response curve ([2]; RPMI 5 mM glucose + 10% FBS): 452
- AUC of viability dose-response curve [2, 4]: 450
- AUC of viability dose-response curve ([3]; HPLM + 10% dialyzed FBS): 472
- AUC of viability dose-response curve ([3]; RPMI 5 mM glucose + 10% FBS): 474
- AUC of viability dose-response curve [3, 4]: 470

SMILES: O=C1c2cccc(O)c2C(=O)c2c(O)cc(CO)cc21
- AUC of viability dose-response curve ([1]; HPLM + 10% dialyzed FBS): 417
- AUC of viability dose-response curve ([1]; RPMI 5 mM glucose + 10% FBS): 424
- AUC of viability dose-response curve [1, 4]: 451
- AUC of viability dose-response curve ([2]; HPLM + 10% dialyzed FBS): 474
- AUC of viability dose-response curve ([2]; RPMI 5 mM glucose + 10% FBS): 451
- AUC of viability dose-response curve [2, 4]: 422
- AUC of viability dose-response curve ([3]; HPLM + 10% dialyzed FBS): 452
- AUC of viability dose-response curve ([3]; RPMI 5 mM glucose + 10% FBS): 450
- AUC of viability dose-response curve [3, 4]: 431

SMILES: COc1ccc(-c2nc3cc(C4=NNC(=O)CC4C)ccc3[nH]2)cc1 (stereo unspecified)
- AUC of viability dose-response curve ([1]; HPLM + 10% dialyzed FBS): 445
- AUC of viability dose-response curve ([1]; RPMI 5 mM glucose + 10% FBS): 459
- AUC of viability dose-response curve [1, 4]: 461
- AUC of viability dose-response curve ([2]; HPLM + 10% dialyzed FBS): 467
- AUC of viability dose-response curve ([2]; RPMI 5 mM glucose + 10% FBS): 462
- AUC of viability dose-response curve [2, 4]: 465
- AUC of viability dose-response curve ([3]; HPLM + 10% dialyzed FBS): 473
- AUC of viability dose-response curve ([3]; RPMI 5 mM glucose + 10% FBS): 465
- AUC of viability dose-response curve [3, 4]: 470

SMILES: CN(C)C(=O)COC(=O)Cc1ccc(OC(=O)c2ccc(NC(=N)N)cc2)cc1
- AUC of viability dose-response curve ([1]; HPLM + 10% dialyzed FBS): 426
- AUC of viability dose-response curve ([1]; RPMI 5 mM glucose + 10% FBS): 469
- AUC of viability dose-response curve [1, 4]: 465
- AUC of viability dose-response curve ([2]; HPLM + 10% dialyzed FBS): 465
- AUC of viability dose-response curve ([2]; RPMI 5 mM glucose + 10% FBS): 458
- AUC of viability dose-response curve [2, 4]: 469
- AUC of viability dose-response curve ([3]; HPLM + 10% dialyzed FBS): 446
- AUC of viability dose-response curve ([3]; RPMI 5 mM glucose + 10% FBS): 462
- AUC of viability dose-response curve [3, 4]: 437

SMILES: CC1(C)CC(=O)c2c(C(F)(F)F)nn(-c3ccc(C(N)=O)c(NC4CCC(OC(=O)CN)CC4)c3)c2C1 (stereo unspecified)
- AUC of viability dose-response curve ([1]; HPLM + 10% dialyzed FBS): 292
- AUC of viability dose-response curve ([1]; RPMI 5 mM glucose + 10% FBS): 273
- AUC of viability dose-response curve [1, 4]: 281
- AUC of viability dose-response curve ([2]; HPLM + 10% dialyzed FBS): 288
- AUC of viability dose-response curve ([2]; RPMI 5 mM glucose + 10% FBS): 290
- AUC of viability dose-response curve [2, 4]: 276
- AUC of viability dose-response curve ([3]; HPLM + 10% dialyzed FBS): 346
- AUC of viability dose-response curve ([3]; RPMI 5 mM glucose + 10% FBS): 297
- AUC of viability dose-response curve [3, 4]: 308

— the supplement of paper PMC11451515
